Measured values as given in US11440898B2, “Isoquinoline compounds, methods for their preparation, and therapeutic uses thereof in conditions associated with the alteration of the activity of beta galactosidase” (Minoryx Therapeutics S.L., priority 2016, dated 2022).

These molecules were tested against T1, mutated beta-galactosidase (p.R60H canine GLB1) in GM11473 fibroblasts (Canis lupus familiaris, UniProt Q9TRY9, R60H) (assay: Enhancement of β-galactosidase activity measured in GM1 fibroblasts (GM11473), 4-MU-β-D-galactopyranoside substrate). Conditions: increase in β-galactosidase enzyme activity vs non-treated cells, concentrations between 6 and 50 μM, 4 days incubation.
T1 construct: host or cells: GM11473 canine GM1 gangliosidosis fibroblasts
T1 sequence (Q9TRY9 30-668 R60H): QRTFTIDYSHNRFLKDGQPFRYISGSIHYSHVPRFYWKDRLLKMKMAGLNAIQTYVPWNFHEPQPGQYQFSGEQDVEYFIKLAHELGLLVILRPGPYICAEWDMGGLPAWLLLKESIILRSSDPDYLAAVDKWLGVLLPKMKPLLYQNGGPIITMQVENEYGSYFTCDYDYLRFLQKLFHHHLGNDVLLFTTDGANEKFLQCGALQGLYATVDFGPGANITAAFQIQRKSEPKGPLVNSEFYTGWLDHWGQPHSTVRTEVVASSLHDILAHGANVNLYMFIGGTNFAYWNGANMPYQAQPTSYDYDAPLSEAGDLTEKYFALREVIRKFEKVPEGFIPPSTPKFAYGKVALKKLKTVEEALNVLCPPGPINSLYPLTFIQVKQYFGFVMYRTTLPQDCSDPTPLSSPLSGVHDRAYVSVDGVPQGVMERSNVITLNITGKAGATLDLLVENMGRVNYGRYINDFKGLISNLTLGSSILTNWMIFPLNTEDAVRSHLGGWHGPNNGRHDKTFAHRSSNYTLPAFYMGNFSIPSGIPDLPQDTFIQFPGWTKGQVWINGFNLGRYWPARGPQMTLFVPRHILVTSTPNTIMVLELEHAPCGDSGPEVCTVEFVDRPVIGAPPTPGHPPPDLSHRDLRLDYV
Format: cell-based
Design: key: Increase in comparison with non-treated of >2.5 fold is shown as A; Increase in comparison with non-treated of >1.7-2.5 fold is shown as B; Increase in comparison with non-treated of 1.2-1.7 fold is shown as C; D means that no increase compared with non-treated cells was detected in this method
Protocol: The capacity of the Compounds of the Disclosure to enhance mutated beta-galactosidase activity levels in GM1 fibroblasts was assayed as follows.
Fibroblasts homozygous for a GM1 gangliosidosis missense mutation (GM11473) (canine fibroblasts homozygous for the GM1 gangliosidosis missense mutation p.R60H equivalent to human p.R59H mutation) were purchased from Coriell Institute for Medical Research (Camden, N.J., USA).
Fibroblasts were seeded at 4×10^4 cells per well in 12-well cell culture plates in Dulbecco's Modified Eagle's Media (DMEM) supplemented with 10% of fetal bovine serum (FBS), 1% penicillin/streptomycin (P/S) (Thermo Fisher Scientific, Waltham, Mass., USA) and incubated at 37° C., 5% CO2 overnight for cell attachment. Subsequently, cells were incubated in the absence or presence of the compounds at the desired concentration for 4 days. After incubation, cells were washed twice with phosphate-buffered saline (“PBS”) and detached using Trypsin-EDTA solution (Sigma Aldrich, St. Louis, Mo., USA) to prepare cell pellets. The pellets were stored at −80° C. until activity assays were performed.
β-Galactosidase activity in cell lysates was measured by using 4-Methylumbelliferyl-β-D-galactopyranoside substrate (Sigma Aldrich, St. Louis, Mo., USA). Briefly, lysates were resuspended in 200 μL of 0.9% NaCl containing 0.01% triton X-100 lysis buffer to promote membrane disruption. The cell suspension was sonicated and centrifuged to remove insoluble materials. Then, lysates were mixed with 4-MU-β-D-galactopyranoside in 100 mM citrate buffer (pH=4) and 100 mM NaCl for 60 min at 37° C. The reaction was terminated by adding 100 mM glycine-NaOH buffer (pH=10.7). The liberated 4-MU was measured on a GloMax Discover plate reader (Promega, Madison, Wis., USA) with excitation at 340 nm and emission at 460 nm. Protein quantification was determined using Pierce BCA Protein Assay Kit (Thermo Fisher Scientific, Waltham, Mass., USA). Measurements were interpolated in a 4-MU standard curve and normalized by protein quantity. Enzyme activities were expressed in treated cells as X-fold increase in comparison with non-treated cells (X=1 represents no enhancement).
The capacity of the Compounds of the Disclosure to produce an increase in β-galactosidase enzyme activity in canine GM1 fibroblasts bearing p.R60H canine GLB1 mutation at concentrations between 6 and 50 μM is denoted as follows: • Increase in comparison with non-treated of >2.5 fold is shown as A. • Increase in comparison with non-treated of >1.7-2.5 fold is shown as B. • Increase in comparison with non-treated of 1.2-1.7 fold is shown as C. • D means that no increase compared with non-treated cells was detected in this method. • ND means “not determined.”
COc1ccc2c(c1)CCC(NC(=O)c1ccc(Nc3nccc4ccc(OC)cc34)cn1)C2 (stereo not shown) [Example 46, N-(6-methoxy-1,2,3,4-tetrahydronaphthalen-2-yl)-5-((7-methoxyisoquinolin-1-yl)amino)picolinamide] was tested, and the “Activity in GM11473 fibroblasts” value was “C (Increase in comparison with non-treated of 1.2-1.7 fold is shown as C)”. COc1ccc2ccnc(Nc3ccc(C(=O)NCC4CCc5ccccc5C4)nc3)c2c1 (stereo not shown) [Example 47, 5-((7-Methoxyisoquinolin-1-yl)amino)-N-((1,2,3,4-tetrahydronaphthalen-2-yl)methyl)picolinamide] was tested, and the “Activity in GM11473 fibroblasts” value was “B (Increase in comparison with non-treated of >1.7-2.5 fold is shown as B)”. With N#Cc1ccc2ccnc(Nc3ccc(C(=O)NC4CCc5ccccc5C4)nc3)c2c1 (stereo not shown) [Example 48, 5-((7-Cyanoisoquinolin-1-yl)amino)-N-(1,2,3,4-tetrahydronaphthalen-2-yl)picolinamide] the “Activity in GM11473 fibroblasts” value was “A (Increase in comparison with non-treated of >2.5 fold is shown as A)”. N#Cc1ccc2ccnc(Nc3ccc(C(=O)NCc4ccc5nsnc5c4)nc3)c2c1 [Example 50, N-(benzo[c][1,2,5]thiadiazol-5-ylmethyl)-5-((7-cyanoisoquinolin-1-yl)amino)picolinamide] was tested, and the “Activity in GM11473 fibroblasts” value was “C (Increase in comparison with non-treated of 1.2-1.7 fold is shown as C)”. With O=C(NCC(c1cccnc1)N1CCCC1)c1ccc(Nc2nccc3ccc(Cl)cc23)nc1 (stereo not shown) [Example 53, 6-((7-Chloroisoquinolin-1-yl)amino)-N-(2-(pyridin-3-yl)-2-(pyrrolidin-1-yl)ethyl)nicotinamide] the “Activity in GM11473 fibroblasts” value was “C (Increase in comparison with non-treated of 1.2-1.7 fold is shown as C)”. O=C(NCc1ccc2c(c1)OCCO2)c1ccc(Nc2nccc3ccc(Cl)cc23)nc1 [Example 54, 6-((7-Chloroisoquinolin-1-yl)amino)-N-((2,3-dihydrobenzo[b][1,4]dioxin-6-yl)methyl)nicotinamide] was tested, and the “Activity in GM11473 fibroblasts” value was “C (Increase in comparison with non-treated of 1.2-1.7 fold is shown as C)”. In the case of O=C(NCc1ccccc1)c1ccc(Nc2nccc3ccc(Cl)cc23)nc1 [Example 55, N-benzyl-6-((7-chloroisoquinolin-1-yl)amino)nicotinamide], the “Activity in GM11473 fibroblasts” value was “C (Increase in comparison with non-treated of 1.2-1.7 fold is shown as C)”. COc1ccc(CNC(=O)c2ccc(Nc3nccc4ccc(Cl)cc34)nc2)cc1 [Example 56, 6-((7-Chloroisoquinolin-1-yl)amino)-N-(4-methoxybenzyl)nicotinamide] was tested, and the “Activity in GM11473 fibroblasts” value was “D”. COc1cccc(CNC(=O)c2ccc(Nc3nccc4ccc(Cl)cc34)nc2)c1 [Example 57, 6-((7-Chloroisoquinolin-1-yl)amino)-N-(3-methoxybenzyl)nicotinamide] was tested, and the “Activity in GM11473 fibroblasts” value was “C (Increase in comparison with non-treated of 1.2-1.7 fold is shown as C)”. For O=C(NCc1ccc2nsnc2c1)c1ccc(Nc2nccc3ccc(Cl)cc23)nc1 [Example 59, N-(benzo[c][1,2,5]thiadiazol-5-ylmethyl)-6-((7-chloroisoquinolin-1-yl)amino)nicotinamide], the “Activity in GM11473 fibroblasts” value was “C (Increase in comparison with non-treated of 1.2-1.7 fold is shown as C)”. For O=C(NC1CCc2ccccc2C1)c1ccc(Nc2nccc3ccc(Cl)cc23)nc1 (stereo not shown) [Example 60, 6-((7-Chloroisoquinolin-1-yl)amino)-N-(1,2,3,4-tetrahydronaphthalen-2-yl)nicotinamide], the “Activity in GM11473 fibroblasts” value was “C (Increase in comparison with non-treated of 1.2-1.7 fold is shown as C)”. With O=C(NCc1ccc2c(c1)OCO2)c1ccc(Nc2nccc3ccc(Cl)cc23)nc1 [Example 62, N-(benzo[d][1,3]dioxol-5-ylmethyl)-6-((7-chloroisoquinolin-1-yl)amino)nicotinamide] the “Activity in GM11473 fibroblasts” value was “D”. O=C(NCc1ccc2c(c1)CCCO2)c1ccc(Nc2nccc3ccc(Cl)cc23)nc1 [Example 63, 6-((7-Chloroisoquinolin-1-yl)amino)-N-(chroman-6-ylmethyl)nicotinamide] was tested, and the “Activity in GM11473 fibroblasts” value was “C (Increase in comparison with non-treated of 1.2-1.7 fold is shown as C)”. O=S(=O)(NCC(c1cccnc1)N1CCCC1)c1cccc(Nc2nccc3ccc(Cl)cc23)c1 (stereo not shown) [Example 65, 3-((7-Chloroisoquinolin-1-yl)amino)-N-(2-(pyridin-3-yl)-2-(pyrrolidin-1-yl)ethyl)benzenesulfonamide] was tested, and the “Activity in GM11473 fibroblasts” value was “C (Increase in comparison with non-treated of 1.2-1.7 fold is shown as C)”. O=S(=O)(NCC(c1ccccn1)N1CCOCC1)c1cccc(Nc2nccc3ccc(Cl)cc23)c1 (stereo not shown) [Example 66, 3-((7-Chloroisoquinolin-1-yl)amino)-N-(2-morpholino-2-(pyridin-2-yl)ethyl)benzenesulfonamide] was tested, and the “Activity in GM11473 fibroblasts” value was “C (Increase in comparison with non-treated of 1.2-1.7 fold is shown as C)”. With Cn1nnc2c(NS(=O)(=O)c3cccc(Nc4nccc5ccc(Cl)cc45)c3)cccc21 [Example 67, 3-((7-Chloroisoquinolin-1-yl)amino)-N-(1-methyl-1H-benzo[d][1,2,3]triazol-4-yl)benzenesulfonamide] the “Activity in GM11473 fibroblasts” value was “C (Increase in comparison with non-treated of 1.2-1.7 fold is shown as C)”. With O=S(=O)(NCc1ccc2c(c1)OCCO2)c1cccc(Nc2nccc3ccc(Cl)cc23)c1 [Example 69, 3-((7-Chloroisoquinolin-1-yl)amino)-N-((2,3-dihydrobenzo[b][1,4]dioxin-6-yl)methyl)benzenesulfonamide] the “Activity in GM11473 fibroblasts” value was “D”. O=S(=O)(NC1CCc2ccccc2C1)c1cccc(Nc2nccc3ccc(Cl)cc23)c1 (stereo not shown) [Example 70, 3-((7-Chloroisoquinolin-1-yl)amino)-N-(1,2,3,4-tetrahydronaphthalen-2-yl)benzenesulfonamide] was tested, and the “Activity in GM11473 fibroblasts” value was “C (Increase in comparison with non-treated of 1.2-1.7 fold is shown as C)”. In the case of Cn1nnc2cc(CNS(=O)(=O)c3cccc(Nc4nccc5ccc(Cl)cc45)c3)ccc21 [Example 71, 3-((7-Chloroisoquinolin-1-yl)amino)-N-((1-methyl-1H-benzo[d][1,2,3]triazol-5-yl)methyl)benzenesulfonamide], the “Activity in GM11473 fibroblasts” value was “C (Increase in comparison with non-treated of 1.2-1.7 fold is shown as C)”. With O=S(=O)(NCC(c1ccccn1)N1CCOCC1)c1ccc(Nc2nccc3ccc(Cl)cc23)cc1 (stereo not shown) [Example 72, 4-((7-Chloroisoquinolin-1-yl)amino)-N-(2-morpholino-2-(pyridin-2-yl)ethyl)benzenesulfonamide] the “Activity in GM11473 fibroblasts” value was “D”. With Cn1nnc2c(NS(=O)(=O)c3ccc(Nc4nccc5ccc(Cl)cc45)cc3)cccc21 [Example 73, 4-((7-Chloroisoquinolin-1-yl)amino)-N-(1-methyl-1H-benzo[d][1,2,3]triazol-4-yl)benzenesulfonamide] the “Activity in GM11473 fibroblasts” value was “D”. For O=S(=O)(NCc1ccc2nsnc2c1)c1cccc(Nc2nccc3ccc(Cl)cc23)c1 [Example 74, N-(benzo[c][1,2,5]thiadiazol-5-ylmethyl)-3-((7-chloroisoquinolin-1-yl)amino)benzenesulfonamide], the “Activity in GM11473 fibroblasts” value was “D”.
